Assay results: ChEMBL document CHEMBL4507304, “Data for DCP probe TP-021” (2021)

Assays:
[1] = target: 5-hydroxytryptamine receptor 3A (Homo sapiens) (UniProt P46098); details: Compound concentration 10.0 uM
[2] = target: Phosphorylase b kinase regulatory subunit alpha, liver isoform (Homo sapiens) (UniProt P46019); details: Compound concentration 1000.0 nM
[3] = target: Serine/threonine-protein kinase BRSK1 (Homo sapiens) (UniProt Q8TDC3); details: Compound concentration 1000.0 nM
[4] = target: Serine/threonine-protein kinase Nek5 (Homo sapiens) (UniProt Q6P3R8); details: Compound concentration 1000.0 nM
[5] = target: Tyrosine-protein kinase JAK3 (Homo sapiens) (UniProt P52333); details: Compound concentration 1000.0 nM
[6] = target: Serine/threonine-protein kinase OSR1 (Homo sapiens) (UniProt O95747); details: Compound concentration 1000.0 nM
[7] = target: Proto-oncogene tyrosine-protein kinase receptor Ret (Homo sapiens) (UniProt P07949); details: Compound concentration 1000.0 nM
[8] = target: Cyclin-dependent kinase 4 (Homo sapiens) (UniProt P11802); details: Compound concentration 1000.0 nM
[9] = target: Mitogen-activated protein kinase 8 (Homo sapiens) (UniProt P45983); details: Compound concentration 1000.0 nM
[10] = target: Serine/threonine-protein kinase Chk2 (Homo sapiens) (UniProt O96017); details: Compound concentration 1000.0 nM
[11] = target: Muscarinic acetylcholine receptor M4 (Homo sapiens) (UniProt P08173); details: Compound concentration 10.0 uM
[12] = target: Serine/threonine-protein kinase TAO3 (Homo sapiens) (UniProt Q9H2K8); details: Compound concentration 1000.0 nM
[13] = target: Calcium/calmodulin-dependent protein kinase type 1 (Homo sapiens) (UniProt Q14012); details: Compound concentration 1000.0 nM
[14] = target: 5-hydroxytryptamine receptor 6 (Homo sapiens) (UniProt P50406); details: Compound concentration 10.0 uM
[15] = target: Ephrin type-B receptor 3 (Homo sapiens) (UniProt P54753); details: Compound concentration 1000.0 nM
[16] = target: Phosphorylase b kinase gamma catalytic chain, skeletal muscle/heart isoform (Homo sapiens) (UniProt Q16816); details: Compound concentration 1000.0 nM
[17] = target: Discoidin domain-containing receptor 2 (Homo sapiens) (UniProt Q16832); details: Compound concentration 1000.0 nM
[18] = target: Casein kinase II subunit alpha (Homo sapiens) (UniProt P68400); details: Compound concentration 1000.0 nM
[19] = target: Dual specificity testis-specific protein kinase 1 (Homo sapiens) (UniProt Q15569); details: Compound concentration 1000.0 nM
[20] = target: Serine/threonine-protein kinase LATS1 (Homo sapiens) (UniProt O95835); details: Compound concentration 1000.0 nM
[21] = target: Serine/threonine-protein kinase 38 (Homo sapiens) (UniProt Q15208); details: Compound concentration 1000.0 nM
[22] = target: ALK tyrosine kinase receptor (Homo sapiens) (UniProt Q9UM73); details: Compound concentration 1000.0 nM
[23] = target: Mitogen-activated protein kinase kinase kinase kinase 1 (Homo sapiens) (UniProt Q92918); details: Compound concentration 1000.0 nM
[24] = target: Protein kinase C iota type (Homo sapiens) (UniProt P41743); details: Compound concentration 1000.0 nM
[25] = target: Ephrin type-A receptor 3 (Homo sapiens) (UniProt P29320); details: Compound concentration 1000.0 nM
[26] = target: Bone morphogenetic protein receptor type-1A (Homo sapiens) (UniProt P36894); details: Compound concentration 1000.0 nM
[27] = target: 5-hydroxytryptamine receptor 1E (Homo sapiens) (UniProt P28566); details: Compound concentration 10.0 uM
[28] = target: Uncharacterized serine/threonine-protein kinase SBK3 (Homo sapiens) (UniProt P0C264); details: Compound concentration 1000.0 nM
[29] = target: Cyclin-dependent kinase 5 (Homo sapiens) (UniProt Q00535); details: Compound concentration 1000.0 nM
[30] = target: Macrophage colony-stimulating factor 1 receptor (Homo sapiens) (UniProt P07333); details: Compound concentration 1000.0 nM
[31] = target: Macrophage-stimulating protein receptor (Homo sapiens) (UniProt Q04912); details: Compound concentration 1000.0 nM
[32] = target: Atypical kinase COQ8A, mitochondrial (Homo sapiens) (UniProt Q8NI60); details: Compound concentration 1000.0 nM
[33] = target: Alpha-2C adrenergic receptor (Homo sapiens) (UniProt P18825); details: Compound concentration 10.0 uM
[34] = tested on: Receptor-type tyrosine-protein kinase FLT3 (Homo sapiens), P36888 [R834Q]; details: Compound concentration 1000.0 nM
[35] = target: Dual specificity mitogen-activated protein kinase kinase 6 (Homo sapiens) (UniProt P52564); details: Compound concentration 1000.0 nM
[36] = target: Serine/threonine-protein kinase 35 (Homo sapiens) (UniProt Q8TDR2); details: Compound concentration 1000.0 nM
[37] = tested on: Phosphatidylinositol 4,5-bisphosphate 3-kinase catalytic subunit alpha isoform (Homo sapiens), P42336 [Q546K]; details: Compound concentration 1000.0 nM
[38] = target: Serine/threonine-protein kinase STK11 (Homo sapiens) (UniProt Q15831); details: Compound concentration 1000.0 nM
[39] = target: Cyclin-dependent kinase 11A (Homo sapiens) (UniProt Q9UQ88); details: Compound concentration 1000.0 nM
[40] = target: cGMP-dependent protein kinase 2 (Homo sapiens) (UniProt Q13237); details: Compound concentration 1000.0 nM
[41] = target: RAF proto-oncogene serine/threonine-protein kinase (Homo sapiens) (UniProt P04049); details: Compound concentration 1000.0 nM
[42] = target: Homeodomain-interacting protein kinase 2 (Homo sapiens) (UniProt Q9H2X6); details: Compound concentration 1000.0 nM
[43] = target: Testis-specific serine/threonine-protein kinase 1 (Homo sapiens) (UniProt Q9BXA7); details: Compound concentration 1000.0 nM
[44] = target: Kappa-type opioid receptor (Homo sapiens) (UniProt P41145); details: Compound concentration 10.0 uM
[45] = target: Tyrosine-protein kinase JAK1 (Homo sapiens) (UniProt P23458); details: Compound concentration 1000.0 nM

Sequence of Ephrin type-B receptor 3 (Homo sapiens) (P54753 whole entry, canonical isoform): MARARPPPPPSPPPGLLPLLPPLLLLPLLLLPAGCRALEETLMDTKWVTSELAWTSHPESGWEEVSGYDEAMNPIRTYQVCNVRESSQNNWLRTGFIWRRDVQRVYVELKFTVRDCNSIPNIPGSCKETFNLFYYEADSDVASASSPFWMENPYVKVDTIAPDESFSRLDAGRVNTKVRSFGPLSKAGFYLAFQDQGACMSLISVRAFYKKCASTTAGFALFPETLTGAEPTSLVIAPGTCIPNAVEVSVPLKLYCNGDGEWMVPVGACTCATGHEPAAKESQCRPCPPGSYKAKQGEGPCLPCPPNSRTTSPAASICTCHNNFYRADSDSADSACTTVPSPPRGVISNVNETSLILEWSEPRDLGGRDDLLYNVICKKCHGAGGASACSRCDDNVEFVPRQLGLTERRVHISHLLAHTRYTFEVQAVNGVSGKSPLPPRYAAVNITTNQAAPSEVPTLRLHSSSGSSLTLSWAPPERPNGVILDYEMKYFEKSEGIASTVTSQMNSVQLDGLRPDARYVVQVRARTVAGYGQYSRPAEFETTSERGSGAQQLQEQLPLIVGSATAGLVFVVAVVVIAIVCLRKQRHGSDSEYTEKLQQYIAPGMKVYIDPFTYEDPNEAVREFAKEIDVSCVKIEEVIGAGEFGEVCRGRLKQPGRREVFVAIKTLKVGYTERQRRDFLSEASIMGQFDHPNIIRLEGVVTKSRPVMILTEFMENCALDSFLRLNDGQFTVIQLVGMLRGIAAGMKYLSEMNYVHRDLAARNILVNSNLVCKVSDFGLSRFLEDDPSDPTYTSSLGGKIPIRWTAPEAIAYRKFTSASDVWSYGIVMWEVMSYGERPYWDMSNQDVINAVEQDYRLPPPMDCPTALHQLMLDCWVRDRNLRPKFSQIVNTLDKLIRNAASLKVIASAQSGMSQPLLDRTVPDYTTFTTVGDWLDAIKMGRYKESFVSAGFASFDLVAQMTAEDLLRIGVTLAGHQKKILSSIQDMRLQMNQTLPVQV
Sequence of Phosphorylase b kinase regulatory subunit alpha, liver isoform (Homo sapiens) (P46019 whole entry, canonical isoform): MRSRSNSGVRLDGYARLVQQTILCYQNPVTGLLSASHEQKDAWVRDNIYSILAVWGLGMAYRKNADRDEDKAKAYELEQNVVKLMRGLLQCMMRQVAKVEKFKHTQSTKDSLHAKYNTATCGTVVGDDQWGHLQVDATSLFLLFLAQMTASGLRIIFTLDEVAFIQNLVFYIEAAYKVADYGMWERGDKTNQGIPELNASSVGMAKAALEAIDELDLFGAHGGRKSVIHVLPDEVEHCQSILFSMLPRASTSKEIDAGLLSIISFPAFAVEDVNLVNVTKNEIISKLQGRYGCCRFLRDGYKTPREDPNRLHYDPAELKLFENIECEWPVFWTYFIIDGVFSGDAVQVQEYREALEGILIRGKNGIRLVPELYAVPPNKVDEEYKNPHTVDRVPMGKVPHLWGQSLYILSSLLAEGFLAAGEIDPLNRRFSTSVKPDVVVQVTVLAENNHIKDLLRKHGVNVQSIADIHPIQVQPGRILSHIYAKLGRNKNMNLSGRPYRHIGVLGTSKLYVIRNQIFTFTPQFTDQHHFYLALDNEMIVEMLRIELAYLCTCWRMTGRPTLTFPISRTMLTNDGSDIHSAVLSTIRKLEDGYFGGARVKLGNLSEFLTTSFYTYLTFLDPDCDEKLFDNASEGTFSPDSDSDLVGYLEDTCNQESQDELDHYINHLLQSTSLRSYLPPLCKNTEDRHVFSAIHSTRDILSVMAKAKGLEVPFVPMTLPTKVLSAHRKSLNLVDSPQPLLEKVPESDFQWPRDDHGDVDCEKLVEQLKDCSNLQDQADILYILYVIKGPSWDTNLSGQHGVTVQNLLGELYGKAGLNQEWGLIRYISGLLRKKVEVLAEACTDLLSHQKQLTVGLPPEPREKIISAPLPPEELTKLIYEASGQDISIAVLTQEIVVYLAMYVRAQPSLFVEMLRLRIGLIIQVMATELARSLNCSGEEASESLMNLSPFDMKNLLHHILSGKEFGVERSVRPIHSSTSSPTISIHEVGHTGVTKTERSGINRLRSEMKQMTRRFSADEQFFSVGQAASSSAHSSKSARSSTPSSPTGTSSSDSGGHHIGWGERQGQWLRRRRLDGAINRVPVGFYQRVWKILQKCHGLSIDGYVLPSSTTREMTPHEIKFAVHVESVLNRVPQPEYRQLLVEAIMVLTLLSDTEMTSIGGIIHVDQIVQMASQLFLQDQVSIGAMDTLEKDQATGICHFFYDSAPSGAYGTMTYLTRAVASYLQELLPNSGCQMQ
Sequence of Mitogen-activated protein kinase 8 (Homo sapiens) (P45983 whole entry): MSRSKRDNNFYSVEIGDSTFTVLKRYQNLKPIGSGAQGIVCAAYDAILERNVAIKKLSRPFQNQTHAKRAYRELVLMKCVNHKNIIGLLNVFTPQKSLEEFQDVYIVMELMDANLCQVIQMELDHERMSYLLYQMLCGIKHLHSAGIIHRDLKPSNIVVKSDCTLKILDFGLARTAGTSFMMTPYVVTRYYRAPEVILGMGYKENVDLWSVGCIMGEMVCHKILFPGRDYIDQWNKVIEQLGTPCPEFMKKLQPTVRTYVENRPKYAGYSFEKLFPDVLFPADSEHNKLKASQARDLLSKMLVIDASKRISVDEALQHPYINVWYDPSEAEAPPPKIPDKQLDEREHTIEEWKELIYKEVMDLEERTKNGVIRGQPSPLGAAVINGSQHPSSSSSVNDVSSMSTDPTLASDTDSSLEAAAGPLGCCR
Sequence of Macrophage-stimulating protein receptor (Homo sapiens) (Q04912 25-304 limits assumed): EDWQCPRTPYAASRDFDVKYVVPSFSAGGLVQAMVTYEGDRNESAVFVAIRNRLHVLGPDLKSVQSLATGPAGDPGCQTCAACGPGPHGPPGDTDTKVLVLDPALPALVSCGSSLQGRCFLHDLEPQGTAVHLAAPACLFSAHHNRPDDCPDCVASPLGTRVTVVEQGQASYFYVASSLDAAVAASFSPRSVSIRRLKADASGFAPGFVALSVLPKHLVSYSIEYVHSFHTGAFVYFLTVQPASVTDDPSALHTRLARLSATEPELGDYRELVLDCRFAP
Sequence of Macrophage-stimulating protein receptor (Homo sapiens) (Q04912 310-1400 limits assumed): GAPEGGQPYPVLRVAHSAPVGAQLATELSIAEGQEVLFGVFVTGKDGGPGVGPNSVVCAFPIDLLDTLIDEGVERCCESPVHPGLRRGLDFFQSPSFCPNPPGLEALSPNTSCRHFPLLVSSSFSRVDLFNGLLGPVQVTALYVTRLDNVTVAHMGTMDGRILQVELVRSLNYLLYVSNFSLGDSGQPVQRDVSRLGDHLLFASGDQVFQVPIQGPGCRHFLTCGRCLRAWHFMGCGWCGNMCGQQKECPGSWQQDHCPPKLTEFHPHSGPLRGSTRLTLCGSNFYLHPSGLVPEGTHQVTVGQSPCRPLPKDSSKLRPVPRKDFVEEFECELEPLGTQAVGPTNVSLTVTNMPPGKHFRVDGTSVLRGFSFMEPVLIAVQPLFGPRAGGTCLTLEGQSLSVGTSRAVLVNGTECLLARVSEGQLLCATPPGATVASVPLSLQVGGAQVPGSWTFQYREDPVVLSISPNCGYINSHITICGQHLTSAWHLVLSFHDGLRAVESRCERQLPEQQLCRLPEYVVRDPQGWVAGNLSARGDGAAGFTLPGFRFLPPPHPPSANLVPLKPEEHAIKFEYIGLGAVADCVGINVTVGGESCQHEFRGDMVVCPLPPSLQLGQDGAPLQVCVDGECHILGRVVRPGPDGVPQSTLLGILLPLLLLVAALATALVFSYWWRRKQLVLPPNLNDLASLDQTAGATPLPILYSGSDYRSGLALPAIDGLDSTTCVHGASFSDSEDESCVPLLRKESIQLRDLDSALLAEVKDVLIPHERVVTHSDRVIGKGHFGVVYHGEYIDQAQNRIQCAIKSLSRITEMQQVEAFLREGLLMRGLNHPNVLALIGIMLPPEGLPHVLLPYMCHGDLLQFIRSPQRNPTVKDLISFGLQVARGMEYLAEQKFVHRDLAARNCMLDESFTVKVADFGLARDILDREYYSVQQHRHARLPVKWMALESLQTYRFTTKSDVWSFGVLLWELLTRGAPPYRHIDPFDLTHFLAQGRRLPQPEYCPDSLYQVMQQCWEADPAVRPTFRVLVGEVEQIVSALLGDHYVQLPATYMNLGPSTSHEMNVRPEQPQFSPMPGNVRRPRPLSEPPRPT
Sequence of Alpha-2C adrenergic receptor (Homo sapiens) (P18825 whole entry): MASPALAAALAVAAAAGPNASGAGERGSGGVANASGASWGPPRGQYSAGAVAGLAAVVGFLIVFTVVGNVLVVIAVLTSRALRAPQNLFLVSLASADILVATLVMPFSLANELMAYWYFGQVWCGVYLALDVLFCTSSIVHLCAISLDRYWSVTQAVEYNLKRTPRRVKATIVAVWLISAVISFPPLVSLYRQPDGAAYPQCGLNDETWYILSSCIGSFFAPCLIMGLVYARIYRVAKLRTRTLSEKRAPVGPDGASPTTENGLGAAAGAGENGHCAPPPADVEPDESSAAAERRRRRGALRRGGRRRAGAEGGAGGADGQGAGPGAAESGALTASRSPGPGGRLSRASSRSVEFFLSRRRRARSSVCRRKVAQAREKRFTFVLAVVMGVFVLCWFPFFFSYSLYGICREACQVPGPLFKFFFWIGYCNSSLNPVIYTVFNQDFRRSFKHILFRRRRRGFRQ
Sequence of Dual specificity mitogen-activated protein kinase kinase 6 (Homo sapiens) (P52564 whole entry): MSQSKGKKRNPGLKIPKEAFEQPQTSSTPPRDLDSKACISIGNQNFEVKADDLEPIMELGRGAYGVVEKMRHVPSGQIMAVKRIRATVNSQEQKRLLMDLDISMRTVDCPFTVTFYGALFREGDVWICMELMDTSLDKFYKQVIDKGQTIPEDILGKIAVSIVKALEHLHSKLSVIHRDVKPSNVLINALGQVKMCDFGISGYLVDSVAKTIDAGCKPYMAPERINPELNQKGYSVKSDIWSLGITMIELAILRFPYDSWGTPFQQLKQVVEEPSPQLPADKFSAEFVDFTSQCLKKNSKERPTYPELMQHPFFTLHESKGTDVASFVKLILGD

N#Cc1ccc(Nc2ccc3[nH]c(=O)[nH]c3c2)c(Cl)c1
inactive: inhibition [1] 1.33% | residual activity [2] 100% | residual activity [3] 100% | residual activity [4] 100% | residual activity [5] 100% | residual activity [6] 75% | residual activity [7] 97% | residual activity [8] 86% | residual activity [9] 98% | residual activity [10] 100% | inhibition [11] 11.6% | residual activity [12] 100% | residual activity [13] 86% | inhibition [14] -1.18% | residual activity [15] 100% | residual activity [16] 100% | residual activity [17] 100% | residual activity [18] 80% | residual activity [19] 100% | residual activity [20] 76% | residual activity [21] 95% | residual activity [22] 100% | residual activity [23] 100% | residual activity [24] 86% | residual activity [25] 86% | residual activity [26] 100% | inhibition [27] 12.6% | residual activity [28] 96% | residual activity [29] 100% | residual activity [30] 100% | residual activity [31] 100% | residual activity [32] 100% | inhibition [33] 4.16% | residual activity [34] 90% | residual activity [35] 80% | residual activity [36] 100% | residual activity [37] 93% | residual activity [38] 100% | residual activity [39] 97% | residual activity [40] 87% | residual activity [41] 68% | residual activity [42] 100% | residual activity [43] 56% | inhibition [44] 8.98% | residual activity [45] 100%

O=C1CCc2cc(Nc3cc(OC4CCOCC4)c([N+](=O)[O-])cc3Cl)ccc2N1
inactive: inhibition [1] 4.05% | residual activity [2] 100% | residual activity [3] 100% | residual activity [4] 96% | residual activity [5] 96% | residual activity [6] 83% | residual activity [7] 89% | residual activity [8] 78% | residual activity [9] 91% | residual activity [10] 69% | inhibition [11] 48.7% | residual activity [12] 81% | residual activity [13] 93% | inhibition [14] -2.48% | residual activity [15] 88% | residual activity [16] 100% | residual activity [17] 100% | residual activity [18] 84% | residual activity [19] 92% | residual activity [20] 81% | residual activity [21] 88% | residual activity [22] 82% | residual activity [23] 100% | residual activity [24] 98% | residual activity [25] 83% | residual activity [26] 97% | inhibition [27] 16.5% | residual activity [28] 100% | residual activity [29] 97% | residual activity [30] 95% | residual activity [31] 100% | residual activity [32] 100% | inhibition [33] -0.13% | residual activity [34] 87% | residual activity [35] 69% | residual activity [36] 100% | residual activity [37] 70% | residual activity [38] 100% | residual activity [39] 100% | residual activity [40] 85% | residual activity [41] 98% | residual activity [42] 100% | residual activity [43] 85% | inhibition [44] 12.4% | residual activity [45] 94%
